This note sets out measurements from patent US11267811B2, “Small molecule inhibitors of galectin-3” (BRISTOL-MYERS SQUIBB COMPANY, priority 2017, dated 2022).

Each structure is given as a SMILES string.

Usually IC50 stands for the concentration at which inhibition is half-maximal.

For one experiment, the target named is His-tagged recombinant human Gal-3 (hGal-3) (Homo sapiens (Human), UniProt P17931). Nature of the experiment: Gal-3 HTRF assay (His-tagged hGal-3 binding to B-ASF).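 Note: compounds preincubated 30 min with hGal-3, then 1 h with B-ASF, detection via terbium anti-His antibody and streptavidin d2. Control with B-ASF counts as full signal, omitting B-ASF as background.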 Particulars: HTRF, hGal-3 15 nM, B-ASF 15 nM; read-out: hGal-3 IC50. (TR-FRET usually uses a lanthanide donor and a delayed reading to cut background.)
His-tagged recombinant human Gal-3 (hGal-3), sequence (P17931 whole entry): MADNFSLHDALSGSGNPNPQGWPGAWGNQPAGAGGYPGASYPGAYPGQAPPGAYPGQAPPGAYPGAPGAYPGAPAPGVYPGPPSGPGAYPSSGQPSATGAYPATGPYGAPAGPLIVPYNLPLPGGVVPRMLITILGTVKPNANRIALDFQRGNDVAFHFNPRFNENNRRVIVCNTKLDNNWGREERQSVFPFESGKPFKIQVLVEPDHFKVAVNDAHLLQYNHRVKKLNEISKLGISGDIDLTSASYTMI
Consider `COc1ccc(-n2cnnc2[C@@H]2O[C@H](CO)[C@H](O)[C@H](n3cc(-c4cc(F)c(F)c(F)c4)nn3)[C@H]2O)cc1OC` [Example 79], for which the IC50 came out at 170 nM.

`Cn1cnc2ccc(-n3ncnc3[C@@H]3O[C@H](CO)[C@H](O)[C@H](n4cc(-c5cc(F)c(F)c(F)c5)nn4)[C@H]3O)cc21` [Example 48]: the IC50 is 110 nM.

As for `Cc1nc2ccc(-n3nc(CC(N)=O)nc3[C@@H]3O[C@H](CO)[C@H](O)[C@H](n4cc(-c5cc(F)c(F)c(F)c5)nn4)[C@H]3O)cc2s1` [Example 268], the IC50 amounted to 120 nM.

For `Cc1nc([C@@H]2O[C@H](CO)[C@H](O)[C@H](n3cc(-c4cc(F)c(F)c(F)c4)nn3)[C@H]2O)n(-c2ccc(Cl)cc2C)n1` [Example 63], the IC50 was 850 nM.

As for `Cc1nc([C@@H]2O[C@H](CO)[C@H](O)[C@H](n3cc(-c4cc(F)c(F)c(F)c4)nn3)[C@H]2O)c(-c2cccc(Cl)c2)s1` [Example 284, (2S,3R,4R,5R,6R)-2-(5-(3-chlorophenyl)-2-methylthiazol-4-yl)-6-(hydroxymethyl)-4-(4-(3,4,5-trifluorophenyl)-1H-1,2,3-triazol-1-yl)tetrahydro-2H-pyran-3,5-diol], the IC50 was 2400 nM.

As to `OC[C@H]1O[C@@H](c2ncnn2-c2c(F)cccc2F)[C@H](O)[C@@H](n2cc(-c3cc(F)c(F)c(F)c3)nn2)[C@H]1O` [Example 29], the IC50 is 1560 nM.

For `OC[C@H]1O[C@@H](c2nncn2-c2ccc(Cl)cc2Cl)[C@H](O)[C@@H](n2cc(-c3cc(F)c(F)c(F)c3)nn2)[C@H]1O` [Example 83], the IC50 came to 900 nM.

On to `OC[C@H]1O[C@@H](c2ncnn2-c2cc(Cl)ccc2Cl)C[C@@H](n2cc(-c3cc(F)c(F)c(F)c3)nn2)[C@H]1O` [Example 177], for which the IC50 amounted to 130 nM.

Take `Cc1nnc(NS(=O)(=O)c2ccc(-n3cnnc3[C@@H]3O[C@H](CO)[C@H](O)[C@H](n4cc(-c5cc(F)c(F)c(F)c5)nn4)[C@H]3O)cc2)s1` [Example 110]: the IC50 is 1550 nM.

`O=S1(=O)Cc2ccc(-n3cnnc3[C@@H]3O[C@H](CO)[C@H](O)[C@H](n4cc(-c5cc(F)c(F)c(F)c5)nn4)[C@H]3O)cc2C1` [Example 99]: the IC50 turned out to be 890 nM.

Turning to `OC[C@H]1O[C@@H](c2nncn2-c2ccc(Cc3ccncc3)cc2)[C@H](O)[C@@H](n2cc(-c3cc(F)c(F)c(F)c3)nn2)[C@H]1O` [Example 90], the IC50 came to 520 nM.

Regarding `Cn1cc2ccc(-n3cnnc3[C@@H]3O[C@H](CO)[C@H](O)[C@H](n4cc(-c5cc(F)c(F)c(F)c5)nn4)[C@H]3O)cc2n1` [Example 167], the IC50 stood at 300 nM.

For the compound `Cc1nc2ccc(-n3ncnc3[C@@H]3O[C@H](CO)[C@H](O)[C@H](n4cc(-c5cc(F)c(N6CC(O)C6)c(F)c5)nn4)[C@H]3O)cc2s1` [Example 242], the IC50 stood at 60 nM.

Turning to `COc1ccc(Cl)cc1-n1nc(C)nc1[C@H]1C[C@@H](n2cc(-c3cc(F)c(F)c(F)c3)nn2)[C@@H](O)[C@@H](CO)O1` [Example 183, (2R,3R,4R,6R)-6-(1-(5-chloro-2-methoxyphenyl)-3-methyl-1H-1,2,4-triazol-5-yl)-2-(hydroxymethyl)-4-(4-(3,4,5-trifluorophenyl)-1H-1,2,3-triazol-1-yl)tetrahydro-2H-pyran-3-ol], the IC50 stood at 160 nM.

As for `CSc1cccc(-n2cnnc2[C@@H]2O[C@H](CO)[C@H](O)[C@H](n3cc(-c4cc(F)c(F)c(F)c4)nn3)[C@H]2O)c1` [Example 146], the IC50 amounted to 50 nM.

Consider `OC[C@H]1O[C@@H](c2ncnn2-c2cccc(F)c2)[C@H](O)[C@@H](n2cc(-c3cc(F)c(F)c(F)c3)nn2)[C@H]1O` [Example 38], for which the IC50 is 390 nM.

Regarding `Cc1nnc([C@@H]2O[C@H](CO)[C@H](O)[C@H](n3cc(-c4cc(F)c(F)c(F)c4)nn3)[C@H]2O)n1-c1cccc(Cl)c1` [Example 272, (2S,3R,4R,5R,6R)-2-(4-(3-chlorophenyl)-5-methyl-4H-1,2,4-triazol-3-yl)-6-(hydroxymethyl)-4-(4-(3,4,5-trifluorophenyl)-1H-1,2,3-triazol-1-yl)tetrahydro-2H-pyran-3,5-diol], the IC50 amounted to 70 nM.

Take `OC[C@H]1O[C@@H](c2ncnn2Cc2cccc(Cl)c2)[C@H](O)[C@@H](n2cc(-c3cc(F)c(F)c(F)c3)nn2)[C@H]1O` [Example 22]: the IC50 was found to be 1110 nM.

Take `CO[C@@H]1[C@@H](n2cc(-c3ccc(Cl)c(F)c3)nn2)[C@@H](O)[C@@H](CO)O[C@H]1c1nc(C)nn1-c1cc(Cl)ccc1C` [Example 258]: the IC50 stood at 60 nM.

As to `OC[C@H]1O[C@@H](n2nncc2-c2ccc3cn[nH]c3c2)[C@H](O)[C@@H](n2cc(-c3cc(F)c(F)c(F)c3)nn2)[C@H]1O` [Example 6], the half-maximal inhibitory concentration (IC50) stood at 494 nM.

`CO[C@@H]1[C@@H](n2cc(-c3cc(F)c(F)c(F)c3)nn2)[C@@H](O)[C@@H](CO)O[C@H]1c1ncnn1-c1cccc(Cl)c1` [Example 54]: the IC50 came to 83 nM.

For `OC[C@H]1O[C@@H](c2ncnn2-c2cccc(Cl)c2)C[C@@H](n2cc(-c3cc(F)c(F)c(F)c3)nn2)[C@H]1O` [Example 173, (2R,3R,4R,6R)-6-(1-(3-chlorophenyl)-1H-1,2,4-triazol-5-yl)-2-(hydroxymethyl)-4-(4-(3,4,5-trifluorophenyl)-1H-1,2,3-triazol-1-yl)tetrahydro-2H-pyran-3-ol], the IC50 amounted to 180 nM.

Turning to `OC[C@H]1O[C@@H](c2nncn2-c2ccc(Cl)cc2)[C@H](O)[C@@H](n2cc(-c3cc(F)c(F)c(F)c3)nn2)[C@H]1O` [Example 75], the IC50 is 330 nM.

As for `OC[C@H]1O[C@@H](c2nncn2-c2cccc3cc[nH]c23)[C@H](O)[C@@H](n2cc(-c3cc(F)c(F)c(F)c3)nn2)[C@H]1O` [Example 165], the IC50 was found to be 930 nM.

Staying with this experiment, now noted: read-out: hGal3 IC50.
For the compound `Cc1nc2ccc(-n3ncnc3[C@@H]3O[C@H](CO)[C@H](O)[C@H](n4cc(-c5cc(F)cc(Cl)c5)nn4)[C@H]3O)cc2s1` [Example 240], the IC50 stood at 160 nM.

In the case of `OC[C@H]1O[C@@H](c2nncn2-c2cc(Cl)ccc2Cl)[C@H](O)[C@@H](n2cc(-c3ccc(Cl)c(F)c3)nn2)[C@H]1O` [Example 304], the IC50 is 67 nM.

On to `Cc1nc([C@@H]2O[C@H](CO)[C@H](O)[C@H](n3cc(-c4ccc(Cl)c(F)c4)nn3)[C@H]2O)n(-c2cc(C(F)(F)F)ccc2Cl)n1` [Example 255], for which the IC50 was 70 nM.

The same experiment, now with this note: read-out: hGal IC50.
As for `Cc1nc([C@@H]2O[C@H](CO)[C@H](O)[C@H](n3cc(-c4cc(F)c(Cl)c(F)c4)nn3)[C@H]2O)n(-c2cc(Cl)ccc2C2CC2)n1` [Example A34], the IC50 came to 46 nM.

Regarding `Cc1nc([C@@H]2O[C@H](CO)[C@H](O)[C@H](n3cc(-c4cc(F)c5ncccc5c4)nn3)[C@H]2O)n(-c2cc(Cl)ccc2C(F)(F)F)n1` [Example A68], the IC50 amounted to 154 nM.

With `Cc1nc([C@@H]2O[C@H](CO)[C@H](O)[C@H](n3cc(-c4ccc(Cl)c(F)c4)nn3)[C@H]2O)n(-c2cc(Cl)c(F)cc2Cl)n1` [Example A47], the concentration for half-maximal inhibition (IC50) worked out at 54 nM.

In the case of `Cc1nc([C@@H]2O[C@H](CO)[C@H](O)[C@H](n3cc(-c4ccc(Cl)c(F)c4F)nn3)[C@H]2O)n(-c2cc(Cl)ccc2Cl)n1` [Example A72], the IC50 is 11 nM.

`Cc1nc([C@@H]2O[C@H](CO)[C@H](O)[C@H](n3cc(-c4cc(F)c(F)c(F)c4)nn3)[C@H]2O)n(-c2cc(Cl)c(F)cc2Cl)n1` [Example A67]: the IC50 was 39 nM.

As to `Cc1nc([C@@H]2O[C@H](CO)[C@H](O)[C@H](n3cc(-c4ccc(Cl)c(F)c4)nn3)[C@H]2O)n(-c2cc(Cl)ccc2Br)n1` [Example A15], the IC50 turned out to be 40 nM.
